Measured values taken from ChEMBL document CHEMBL1201861, “Genomics of Drug Sensitity in Cancer screening data, Wellcome Trust Sanger Institute”.

Assays:
[1] = test system: KNS-81-FD; assay: cells; type: functional, cell-based, Homo sapiens; details: Homo sapiens, KNS-81-FD;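 note: growth inhibition of KNS-81-FD cells, read out with a cell viability assay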
Description: SANGER: Inhibition of human KNS-81-FD cell growth in a cell viability assay.

[2] = test system: A704; assay: cells; type: functional, cell-based, Homo sapiens; details: Homo sapiens, A704;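 note: growth inhibition of human A704 cells, read out with a cell viability assay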
Description: SANGER: Inhibition of human A704 cell growth in a cell viability assay.

[3] = test system: NCI-H1092; assay: cells; type: functional, cell-based; details: Homo sapiens
Description: SANGER: Inhibition of human NCI-H1092 cell growth in a cell viability assay.

[4] = test system: NB7; assay: cells; type: functional, cell-based; details: Homo sapiens;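 note: growth inhibition of NB7 cells, read out with a cell viability assay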
Description: SANGER: Inhibition of human NB7 cell growth in a cell viability assay.

[5] = test system: 8505C; assay: cells; type: functional, cell-based, Homo sapiens; details: Homo sapiens, 8505C
Description: SANGER: Inhibition of human 8505C cell growth in a cell viability assay.

[6] = test system: OAW-28; assay: cells; type: functional, cell-based, Homo sapiens; details: Homo sapiens, OAW-28;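 note: growth inhibition of OAW-28 cells, read out with a cell viability assay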
Description: SANGER: Inhibition of human OAW-28 cell growth in a cell viability assay.

[7] = test system: HN; assay: cells; type: functional, cell-based, Homo sapiens; details: Homo sapiens, HN
Description: SANGER: Inhibition of human HN cell growth in a cell viability assay.

[8] = test system: HuO9; assay: cells; type: functional, cell-based, Homo sapiens; details: Homo sapiens, HuO9;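 note: growth inhibition of HuO9 cells, read out with a cell viability assay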
Description: SANGER: Inhibition of human HuO9 cell growth in a cell viability assay.

[9] = test system: SW872; assay: cells; type: functional, cell-based, Homo sapiens; details: Homo sapiens, SW872;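 note: growth inhibition of SW872 cells, read out by a viability assay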
Description: SANGER: Inhibition of human SW872 cell growth in a cell viability assay.

[10] = test system: SAOS-2; assay: cells; type: functional, cell-based, Homo sapiens; details: Homo sapiens, SAOS-2;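 note: growth inhibition of human Saos-2 cells determined by a cell viability assay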
Description: SANGER: Inhibition of human Saos-2 cell growth in a cell viability assay.

[11] = test system: NCI-H810; assay: cells; type: functional, cell-based, Homo sapiens; details: Homo sapiens, NCI-H810;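 note: IC50 reflects inhibition of cancer cell line growth, read out with a cell viability assay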
Description: SANGER: Inhibition of human NCI-H810 cell growth in a cell viability assay.

[12] = test system: NOMO-1; assay: cells; type: functional, cell-based; details: Homo sapiens;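 note: growth inhibition of human NOMO-1 cells measured by a cell viability assay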
Description: SANGER: Inhibition of human NOMO-1 cell growth in a cell viability assay.

[13] = test system: CAL-33; assay: cells; type: functional, cell-based, Homo sapiens; details: Homo sapiens, CAL-33;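 note: growth inhibition of CAL-33 cells, read out with a cell viability assay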
Description: SANGER: Inhibition of human CAL-33 cell growth in a cell viability assay.

[14] = test system: CAL-62; assay: cells; type: functional, cell-based, Homo sapiens; details: Homo sapiens, CAL-62;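 note: growth inhibition of CAL-62 cells, read out with a cell viability assay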
Description: SANGER: Inhibition of human CAL-62 cell growth in a cell viability assay.

[15] = test system: LAMA-84; assay: cells; type: functional, cell-based; details: Homo sapiens;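 note: growth inhibition of LAMA-84 cells, read out with a cell viability assay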
Description: SANGER: Inhibition of human LAMA-84 cell growth in a cell viability assay.

[16] = test system: NCI-H1648; assay: cells; type: functional, cell-based, Homo sapiens; details: Homo sapiens, NCI-H1648;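 note: cell viability assay measuring inhibition of NCI-H1648 cell growth, from the Sanger screening data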
Description: SANGER: Inhibition of human NCI-H1648 cell growth in a cell viability assay.

[17] = test system: ZR-75-30; assay: cells; type: functional, cell-based; details: Homo sapiens;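 note: growth inhibition of ZR-75-30 cells, measured with a cell viability readout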
Description: SANGER: Inhibition of human ZR-75-30 cell growth in a cell viability assay.

[18] = test system: OC-314; assay: cells; type: functional, cell-based; details: Homo sapiens
Description: SANGER: Inhibition of human OC-314 cell growth in a cell viability assay.

[19] = test system: DU-145; assay: cells; type: functional, cell-based, Homo sapiens; details: Homo sapiens, DU-145
Description: SANGER: Inhibition of human DU-145 cell growth in a cell viability assay.

[20] = test system: NCI-H2029; assay: cells; type: functional, cell-based; details: Homo sapiens;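 note: Read-out is a viability assay on the cultured cells, and IC50 is the concentration that suppresses cell growth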
Description: SANGER: Inhibition of human NCI-H2029 cell growth in a cell viability assay.

[21] = test system: NCI-H1304; assay: cells; type: functional, cell-based; details: Homo sapiens;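 note: growth inhibition of the cancer cell line, measured in a cell viability assay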
Description: SANGER: Inhibition of human NCI-H1304 cell growth in a cell viability assay.

[22] = test system: NCI-H2405; assay: cells; type: functional, cell-based, Homo sapiens; details: Homo sapiens, NCI-H2405;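 note: growth inhibition of the human cell line, read out with a cell viability assay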
Description: SANGER: Inhibition of human NCI-H2405 cell growth in a cell viability assay.

[23] = test system: H-EMC-SS; assay: cells; type: functional, cell-based; details: Homo sapiens
Description: SANGER: Inhibition of human H-EMC-SS cell growth in a cell viability assay.

[24] = test system: LAN-6; assay: cells; type: functional, cell-based, Homo sapiens; details: Homo sapiens, LAN-6;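 note: growth inhibition of LAN-6 cells, determined with a cell viability assay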
Description: SANGER: Inhibition of human LAN-6 cell growth in a cell viability assay.

[25] = test system: Panc1005; assay: cells; type: functional, cell-based, Homo sapiens; details: Homo sapiens, Panc1005;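 note: growth inhibition of human PANC-10-05 cells, measured by a cell viability assay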
Description: SANGER: Inhibition of human PANC-10-05 cell growth in a cell viability assay.

[26] = test system: NCI-H82; assay: cells; type: functional, cell-based; details: Homo sapiens;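 note: growth inhibition of NCI-H82 cells, measured with a cell viability readout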
Description: SANGER: Inhibition of human NCI-H82 cell growth in a cell viability assay.

[27] = test system: BL-41; assay: cells; type: functional, cell-based; details: Homo sapiens;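 note: growth inhibition of human BL-41 cells, read out with a cell viability assay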
Description: SANGER: Inhibition of human BL-41 cell growth in a cell viability assay.

[28] = test system: NCI-H345; assay: cells; type: functional, cell-based; details: Homo sapiens;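 note: growth inhibition of NCI-H345 cells measured with a cell viability assay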
Description: SANGER: Inhibition of human NCI-H345 cell growth in a cell viability assay.

[29] = test system: SR; assay: cells; type: functional, cell-based; details: Homo sapiens
Description: SANGER: Inhibition of human SR cell growth in a cell viability assay.

[30] = test system: RPMI-6666; assay: cells; type: functional, cell-based; details: Homo sapiens
Description: SANGER: Inhibition of human RPMI-6666 cell growth in a cell viability assay.

[31] = test system: RPMI 8402; assay: SANGER: Inhibition of human RPMI-8402 cell growth in a cell viability assay.; type: functional, cell-based
[32] = test system: NCI-H748; assay: cells; type: functional, cell-based; details: Homo sapiens;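 note: growth inhibition of NCI-H748 cells, measured by a cell viability assay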
Description: SANGER: Inhibition of human NCI-H748 cell growth in a cell viability assay.

[33] = test system: NCCIT; assay: SANGER: Inhibition of human NCCIT cell growth in a cell viability assay.; type: functional, cell-based
[34] = test system: LU-165; assay: cells; type: functional, cell-based; details: Homo sapiens
Description: SANGER: Inhibition of human LU-165 cell growth in a cell viability assay.

[35] = test system: SNU-16; assay: cells; type: functional, cell-based; details: Homo sapiens;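 note: growth inhibition of human SNU-16 cells, determined with a cell viability readout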
Description: SANGER: Inhibition of human NCI-SNU-16 cell growth in a cell viability assay.

[36] = test system: NCI-H2171; assay: cells; type: functional, cell-based; details: Homo sapiens;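 note: growth inhibition of human NCI-H2171 cells, read out by a cell viability assay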
Description: SANGER: Inhibition of human NCI-H2171 cell growth in a cell viability assay.

[37] = test system: COR-L279; assay: SANGER: Inhibition of human COR-L279 cell growth in a cell viability assay.; type: functional, cell-based
[38] = test system: JIYOYE; assay: cells; type: functional, cell-based; details: Homo sapiens
Description: SANGER: Inhibition of human JiyoyeP-2003 cell growth in a cell viability assay.

[39] = test system: CPC-N; assay: cells; type: functional, cell-based; details: Homo sapiens;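 note: growth inhibition of CPC-N cells, with a cell viability assay as the readout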
Description: SANGER: Inhibition of human CPC-N cell growth in a cell viability assay.

[40] = test system: TE-441-T; assay: cells; type: functional, cell-based; details: Homo sapiens
Description: SANGER: Inhibition of human TE-441-T cell growth in a cell viability assay.

[41] = test system: NCI-H2141; assay: cells; type: functional, cell-based; details: Homo sapiens;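 note: growth inhibition of human NCI-H2141 cells, read out with a cell viability assay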
Description: SANGER: Inhibition of human NCI-H2141 cell growth in a cell viability assay.

[42] = test system: NCI-H716; assay: cells; type: functional, cell-based; details: Homo sapiens;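 note: growth inhibition of human NCI-H716 cells, measured by a cell viability assay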
Description: SANGER: Inhibition of human NCI-H716 cell growth in a cell viability assay.

[43] = test system: NALM-6; assay: cells; type: functional, cell-based; details: Homo sapiens;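 note: growth inhibition of NALM-6 cells, read out with a cell viability assay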
Description: SANGER: Inhibition of human NALM-6 cell growth in a cell viability assay.

[44] = test system: SNU-C1; assay: cells; type: functional, cell-based; details: Homo sapiens;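 note: growth inhibition of SNU-C1 human cells, read out by a cell viability assay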
Description: SANGER: Inhibition of human SNU-C1 cell growth in a cell viability assay.

[45] = test system: NCI-H1436; assay: cells; type: functional, cell-based; details: Homo sapiens;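 note: growth suppression of human NCI-H1436 cells, determined with a cell viability readout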
Description: SANGER: Inhibition of human NCI-H1436 cell growth in a cell viability assay.

[46] = test system: ARH-77; assay: cells; type: functional, cell-based; details: Homo sapiens;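 note: growth inhibition of ARH-77 cells, read out by a cell viability assay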
Description: SANGER: Inhibition of human ARH-77 cell growth in a cell viability assay.

[47] = test system: NCI-H187; assay: cells; type: functional, cell-based; details: Homo sapiens;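 note: growth inhibition of NCI-H187 cells, read out as cell viability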
Description: SANGER: Inhibition of human NCI-H187 cell growth in a cell viability assay.

[48] = test system: NCI-H524; assay: cells; type: functional, cell-based; details: Homo sapiens;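 note: growth inhibition of human NCI-H524 cells, read out through a cell viability assay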
Description: SANGER: Inhibition of human NCI-H524 cell growth in a cell viability assay.

[49] = test system: CMK; assay: cells; type: functional, cell-based; details: Homo sapiens;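 note: growth inhibition of CMK cells, read out as cell viability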
Description: SANGER: Inhibition of human CMK cell growth in a cell viability assay.

[50] = test system: SCLC-21H; assay: cells; type: functional, cell-based; details: Homo sapiens;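 note: growth inhibition of cultured human SCLC-21H cells, read out with a cell viability assay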
Description: SANGER: Inhibition of human SCLC-21H cell growth in a cell viability assay.

[51] = test system: MOLT-13; assay: cells; type: functional, cell-based; details: Homo sapiens;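 note: IC50 for suppression of MOLT-13 cell growth, read out with a cell viability assay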
Description: SANGER: Inhibition of human MOLT-13 cell growth in a cell viability assay.

[52] = test system: NCI-H889; assay: cells; type: functional, cell-based; details: Homo sapiens;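 note: cell growth inhibition of the cell line, read out with a viability assay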
Description: SANGER: Inhibition of human NCI-H889 cell growth in a cell viability assay.

[53] = test system: CAL-148; assay: cells; type: functional, cell-based; details: Homo sapiens
Description: SANGER: Inhibition of human CAL-148 cell growth in a cell viability assay.

[54] = test system: NCI-H1417; assay: cells; type: functional, cell-based; details: Homo sapiens;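 note: human NCI-H1417 cells, growth inhibition determined with a cell viability readout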
Description: SANGER: Inhibition of human NCI-H1417 cell growth in a cell viability assay.

[55] = test system: LB996-RCC; assay: cells; type: functional, cell-based; details: Homo sapiens
Description: SANGER: Inhibition of human LB996-RCC cell growth in a cell viability assay.

[56] = test system: IST-SL2; assay: cells; type: functional, cell-based; details: Homo sapiens;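 note: growth inhibition of human IST-SL2 cells, read out by a cell viability assay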
Description: SANGER: Inhibition of human IST-SL2 cell growth in a cell viability assay.

[57] = test system: L-540; assay: cells; type: functional, cell-based; details: Homo sapiens;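 note: growth inhibition of the human L-540 cell line, read out with a viability assay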
Description: SANGER: Inhibition of human L-540 cell growth in a cell viability assay.

[58] = test system: 23132-87; assay: cells; type: functional, cell-based, Homo sapiens; details: Homo sapiens
Description: SANGER: Inhibition of human 23132-87 cell growth in a cell viability assay.

[59] = test system: SJRH30; assay: cells; type: functional, cell-based; details: Homo sapiens;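 note: growth inhibition of human SJRH30 cells, read out with a cell viability assay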
Description: SANGER: Inhibition of human SJRH30 cell growth in a cell viability assay.

In the case of `CN(Cc1cnc2nc(N)nc(N)c2n1)c1ccc(C(=O)N[C@@H](CCC(=O)O)C(=O)O)cc1` [METHOTREXATE], the IC50 [1] is reported as over 200 nM, the IC50 [2] is reported as over 200 nM and the IC50 [3] is reported as over 200 nM. For the same compound, the IC50 [4] was over 200 nM, the IC50 [5] was over 200 nM and the IC50 [6] was over 200 nM. It also gave an IC50 [7] of over 200 nM, an IC50 [8] of over 200 nM and an IC50 [9] of over 200 nM. It also gave an IC50 [10] of over 200 nM, an IC50 [11] of over 200 nM and an IC50 [12] of 16.2 nM. It also gave an IC50 [13] of over 200 nM, an IC50 [14] of over 200 nM and an IC50 [15] of 12.4 nM. The IC50 [16] was over 200 nM, the IC50 [17] was over 200 nM and the IC50 [18] was over 200 nM. The IC50 [19] was over 200 nM, the IC50 [20] was over 200 nM and the IC50 [21] was over 200 nM. It also gave an IC50 [22] of over 200 nM, an IC50 [23] of over 200 nM and an IC50 [24] of over 200 nM. For the same compound, the IC50 [25] was over 200 nM and the IC50 [26] was over 200 nM.

In the case of `CN1CCN(CCOc2cc(OC3CCOCC3)c3c(Nc4c(Cl)ccc5c4OCO5)ncnc3c2)CC1` [SARACATINIB], the IC50 [27] is reported as over 2000 nM, the IC50 [28] is reported as over 2000 nM and the IC50 [29] is reported as over 2000 nM. For the same compound, the IC50 [30] was over 2000 nM, the IC50 [31] was over 2000 nM and the IC50 [32] was over 2000 nM. It also gave an IC50 [1] of over 2000 nM, an IC50 [33] of 732 nM and an IC50 [2] of 892 nM. The IC50 [34] was over 2000 nM, the IC50 [35] was over 2000 nM and the IC50 [36] was over 2000 nM. For the same compound, the IC50 [37] was over 2000 nM, the IC50 [38] was over 2000 nM and the IC50 [39] was over 2000 nM. For the same compound, the IC50 [3] was over 2000 nM, the IC50 [40] was over 2000 nM and the IC50 [41] was over 2000 nM. It also gave an IC50 [4] of over 2000 nM, an IC50 [42] of over 2000 nM and an IC50 [9] of over 2000 nM. For the same compound, the IC50 [43] was over 2000 nM, the IC50 [44] was over 2000 nM and the IC50 [12] was over 2000 nM. The IC50 [45] was 790 nM, the IC50 [46] was over 2000 nM and the IC50 [15] was 160 nM. The IC50 [47] was over 2000 nM, the IC50 [48] was over 2000 nM and the IC50 [16] was 281 nM. It also gave an IC50 [49] of over 2000 nM, an IC50 [50] of over 2000 nM and an IC50 [51] of over 2000 nM. It also gave an IC50 [52] of over 2000 nM, an IC50 [21] of over 2000 nM and an IC50 [53] of over 2000 nM. The IC50 [24] was over 2000 nM, the IC50 [54] was over 2000 nM and the IC50 [55] was 442 nM. It also gave an IC50 [56] of over 2000 nM, an IC50 [57] of over 2000 nM and an IC50 [26] of over 2000 nM.

`Cn1cc(C2=C(c3ccc(Cl)cc3Cl)C(=O)NC2=O)c2ccccc21` [SB-216763] showed an IC50 [1] of over 10000 nM, an IC50 [2] of over 10000 nM and an IC50 [3] of over 10000 nM. For the same compound, the IC50 [4] was over 10000 nM, the IC50 [5] was over 10000 nM and the IC50 [6] was over 10000 nM. For the same compound, the IC50 [7] was over 10000 nM, the IC50 [8] was over 10000 nM and the IC50 [9] was over 10000 nM. It also gave an IC50 [10] of over 10000 nM, an IC50 [11] of over 10000 nM and an IC50 [12] of over 10000 nM. It also gave an IC50 [13] of over 10000 nM, an IC50 [14] of over 10000 nM and an IC50 [15] of over 10000 nM. For the same compound, the IC50 [58] was over 10000 nM, the IC50 [16] was over 10000 nM and the IC50 [59] was over 10000 nM. The IC50 [17] was over 10000 nM, the IC50 [18] was over 10000 nM and the IC50 [19] was over 10000 nM. For the same compound, the IC50 [20] was over 10000 nM, the IC50 [21] was over 10000 nM and the IC50 [22] was over 10000 nM. For the same compound, the IC50 [23] was over 10000 nM, the IC50 [24] was over 10000 nM and the IC50 [25] was over 10000 nM. For the same compound, the IC50 [26] was over 10000 nM.
